Measured values from paper PMC12921516 (ACS Bio & Med Chem Au, 2025).
Where two headings read alike, the source gives them in different places.

What was measured:
hPTP1B1–285 = molecular target: T1, hPTP1B1–285 (Homo sapiens, UniProt P18031); settings: footnote c: IC50 values retrieved from the reference; cited from earlier work
T1 construct: h PTP1B 1–285 IC 50 (μM ± S.D); made in house
T1 sequence (P18031 1-285): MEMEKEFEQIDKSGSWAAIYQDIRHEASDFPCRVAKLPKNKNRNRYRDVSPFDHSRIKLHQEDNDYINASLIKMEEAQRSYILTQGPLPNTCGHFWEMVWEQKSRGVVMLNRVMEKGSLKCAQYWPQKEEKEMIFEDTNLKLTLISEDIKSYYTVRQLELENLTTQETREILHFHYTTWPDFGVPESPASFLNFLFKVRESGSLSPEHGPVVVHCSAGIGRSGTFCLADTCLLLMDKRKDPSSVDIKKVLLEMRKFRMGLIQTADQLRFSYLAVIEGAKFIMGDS

hTCPTP1–415 [1] = molecular target: T2, hTCPTP1–415 (Homo sapiens, UniProt P17706); settings: read-out: hTCPTP1–415 IC50, cited from earlier work
T2 construct: h TCPTP 1–415 IC 50 (μM ± S.D); made in house
T2 sequence (P17706 1-415): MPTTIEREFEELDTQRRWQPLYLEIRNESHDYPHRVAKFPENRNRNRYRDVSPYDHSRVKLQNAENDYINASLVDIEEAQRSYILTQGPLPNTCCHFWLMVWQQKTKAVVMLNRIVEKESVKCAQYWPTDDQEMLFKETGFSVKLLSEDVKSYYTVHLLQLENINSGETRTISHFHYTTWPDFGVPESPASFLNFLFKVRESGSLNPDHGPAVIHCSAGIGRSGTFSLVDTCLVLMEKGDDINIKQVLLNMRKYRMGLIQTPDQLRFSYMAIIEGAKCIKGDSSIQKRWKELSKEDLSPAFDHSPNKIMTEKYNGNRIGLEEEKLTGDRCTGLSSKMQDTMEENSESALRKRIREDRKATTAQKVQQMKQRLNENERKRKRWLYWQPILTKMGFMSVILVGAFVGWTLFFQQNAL

hPTP1B1–400 [2] = molecular target: T3, hPTP1B1–400 (Homo sapiens, UniProt P18031); settings: footnote c: IC50 values retrieved from the reference; previously tested by our group; cited from earlier work
T3 construct: h PTP1B 1–400 IC 50 (μM ± S.D); made in house
T3 sequence (P18031 1-400): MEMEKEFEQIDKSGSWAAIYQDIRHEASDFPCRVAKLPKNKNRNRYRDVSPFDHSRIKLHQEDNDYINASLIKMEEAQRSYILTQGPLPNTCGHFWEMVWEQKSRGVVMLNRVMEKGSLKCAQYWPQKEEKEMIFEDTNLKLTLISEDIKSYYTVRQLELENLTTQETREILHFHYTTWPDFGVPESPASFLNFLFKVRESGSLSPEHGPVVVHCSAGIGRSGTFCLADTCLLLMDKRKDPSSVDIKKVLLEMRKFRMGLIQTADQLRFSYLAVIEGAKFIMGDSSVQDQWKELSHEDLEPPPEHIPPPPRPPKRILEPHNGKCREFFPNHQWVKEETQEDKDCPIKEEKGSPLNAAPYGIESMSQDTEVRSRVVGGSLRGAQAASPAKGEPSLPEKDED

hPTP1B1–400 [3] = molecular target: T3, hPTP1B1–400; experiment: PTP1B inhibition, pNPP hydrolysis, long form; type: biochemical
[4] = system: STZ-induced diabetic rats; settings: earlier study of the group; cited from earlier work
hPTP1B1–400 [5] = molecular target: T3, hPTP1B1–400; experiment: PTP1B inhibition, pNPP hydrolysis, long form; type: biochemical; settings: pNPP substrate, 15 min 37 °C, pH 6.8; ± S.D
Protocol: The inhibitory activity of PTP1B was assessed using the long form of the PTP1B enzyme (hPTP1B1–400). This enzyme comprises a highly conserved N-terminal catalytic domain, known as the PTP domain (PTP1B1–300), in addition to an intrinsically disordered regulatory domain (PTP1B301–400).
The IC50 values obtained from these tests are detailed in Table .
(§1) Aliquots of 0–10 μL of the test compounds (triplicate) were taken and incubated for 15 min at 37 °C with 85 μL of Tris buffer solution (50 mM, pH 6.8) containing PTP1B enzyme and 5 μL of p-nitrophenyl phosphate substrate (pNPP, 10 mM). The absorbance of the hydrolysis product, p-nitrophenol (pNP), was measured at 405 nm using a 96-microplate absorbance reader (Accuris SmartReader 96). The inhibitory activity was determined according to eq . %enzyme=(A405b/A405c)×100 1 Where: % enzyme is the percentage of inhibition for PTP1B or TCPTP
(§2) The IC50 was calculated using regression analysis, eq : %inhibition=A100/1+(I/IC50)^s 2 Where: A100: Maximum inhibition

HFF-1 cells = experiment: Cytotoxicity, Sulforhodamine B assay; type: cell-based, human; settings: HFF-1 proliferation, 48-h incubation, 0.78 μM to 100 μM
Protocol: Given the significance of a drug candidate’s toxicity in relation to its inhibition potential, a cytotoxicity assay was conducted using Normal Human Foreskin Fibroblasts (HFF-1).
All assays were carried out in triplicate. Cell proliferation was determined by the Sulforhodamine B assay, and the half-maximal cytotoxic concentration (CC50) was determined by Probit analysis.

HepG2 cells [6] = experiment: Western blotting, HepG2 normal model; type: cell-based, human; settings: 24 h
Protocol: (§3) HepG2 cells were obtained directly from ATCC (HB-8065) and cultured in DMEM with low glucose, supplemented with fetal bovine serum, 100 U/mL penicillin G, and […] streptomycin. The media was freshly prepared and sterilized by filtration. Cells were maintained with a maximum of 10 passages before being discarded. For cell counting, the cells were washed twice with phosphate-buffered saline (PBS), trypsinized, and counted using a Neubauer chamber. For the insulin-resistant model, 75,000 cells per well were seeded in 6-well plates at 37 °C in 5% CO2 and cultured for 72 h. Subsequently, insulin (0.1 μM) was added to induce insulin resistance for 24 h. After this period, inhibitors were incubated for 24 h, followed by a final 30 min insulin stimulation (0.1 μM) before protein extraction. For the normal model, 75,000 cells per well were seeded in 6-well plates at 37 °C in 5% CO2 and cultured for 96 h. After that, the cells were incubated with the inhibitors for 24 h, followed by protein extraction.
(§4) Treated cells were washed twice with 1 mL of PBS, and proteins were extracted using 300 μL of a buffer solution containing 10% sodium deoxycholate in 10% TEAB, supplemented with a protease and phosphatase inhibitor cocktail. The extracts were heated at 80 °C for 5 min and dissociated by repeated passages through an insulin syringe. The cell extracts were centrifuged at 15,000 rpm for 15 min at 4 °C, and the supernatant was collected. Protein quantification was performed using the bicinchoninic acid assay, and aliquots were prepared for Western blotting. SDS-PAGE was conducted, and proteins were transferred onto a nitrocellulose membrane. The membrane was blocked with 10% skim milk in TBST for 1 h and incubated overnight with primary antibodies (1:400 dilution). Secondary antibodies conjugated to horseradish peroxidase were diluted 1:2,000, and the membranes were incubated for 1 h at room temperature. Blots were visualized using the ChemiDoc MP (Bio-Rad), and densitometric analysis was performed with ImageJ (U.S. National Institutes of Health). Statistical analyses were conducted using GraphPad Prism 8.0.
compounds at 24 h of treatment. β-actin was employed as loading control. b) Densitometric analysis of western blot images
employing ImageJ analysis software. Bar graphs represent the mean ± SEM of normalized values. The control levels were set to
1. Asterisks indicate statistical significance according to the Dunn test. p* < 0.05
(§5) (1 picture or pasted object on this page, not shown here)

HepG2 cells [7] = experiment: Cell viability of HepG2 with crystal violet; type: cell-based, human; settings: 1, 10, and 30 µM for 24, 48 and 72 h
Protocol: A 96-well plate was seeded with 3,000 HepG2 cells per well and incubated for 72 h. Subsequently, the cells were treated with test compounds at various concentrations for 24, 48, and 72 h. After incubation, the medium was removed, and 100 μL of 1% glutaraldehyde was added for 15 min. The glutaraldehyde was then removed, and 50 μL of 0.5% crystal violet (dissolved in 25% methanol) was added for 30 min. The crystal violet staining solution was subsequently removed, and the plate was thoroughly rinsed with tap water. The precipitate was dissolved in a 10% acetic acid solution, mixed for 15 min, and the absorbance was measured at 590 nm using a plate reader (xMark Microplate Spectrophotometer, Bio-Rad).
Figure S48. Cell viability assessment by crystal violet staining. HepG2 cell viability was evaluated after treatment with the respective compounds at concentrations of 1 , 10, and 30 µM for 24 , 48 and 72 hours. Bar graphs represent mean ± SEM. No significant differences were detected using ANOVA. […]

[8] = system: insulin-resistant HepG2 cells; experiment: Western blotting, insulin-resistant HepG2 model; type: cell-based, human; settings: 24 h
Protocol: as §3, §4
resistance model in HepG2 cells . a) Western blotting representative analysis (n=3) of PTP1B, p -AKT, p-IRS1 and p-STAT3 levels
of HepG2 cells treated with the compounds at 24 h of treatment. β-actin was employed as loading control. b) Densitometric
analysis of western blot images employing ImageJ analysis software. Bar graphs represent the mean ± SEM of normalized values.
The control levels were set to 1. Asterisks indicate statistical significance according to the Dunn test. p* < 0.05.
as §5

hPTP1B1–400 [9] = molecular target: T3, hPTP1B1–400; experiment: Enzymatic kinetics studies (Lineweaver–Burk, model fitting); type: biochemical; settings: for inhibition type: hPTP1B1–400, best fit model; for Km / Vmax: hPTP1B1–400 with inhibitor
Protocol: Kinetic analyses were conducted using varying concentrations of substrate and inhibitor.
Five increasing concentrations of each inhibitor were tested, according to their previously determined IC50 values. The negative control was prepared by omitting the inhibitor in the presence of the enzyme and substrate. The Supporting Information includes detailed eqs (E1–E5) used to determine the kinetic parameters and mechanisms involved in PTP1B inhibition.
Equation 1 was used to obtain enzyme kinetic parameters by fitting data to the Michaelis-Menten model (Origin Pro
The equations defined for the following non-linear inhibition models were used to determine the mechanism of
PTP1B inhibition: competitive (E2), non-competitive (E3), uncompetitive (E4), and mixed (E5) (Origin Pro 2018 (64
(1+ ( ))(x05nh ) + (1+ ( )) (x05 nh)
Vmax is the maximum velocity, x is the substrate concentration, i is the inhibitor concentration, nh is the number of
Hill. Ki is the inhibition constant, and Km is the Michaelis constant.

hTCPTP1–415 [10] = molecular target: T2, hTCPTP1–415; experiment: TCPTP inhibitory activity; type: biochemical; settings: pNPP substrate; tested up to 100 μM
Protocol: The effectiveness and safety of a PTP1B inhibitor primarily depend on its selectivity, given that protein tyrosine phosphatases share significant structural homology within their catalytic domains. […] Ertiprotafib was also included in this study.
as §1, §2

hPTP1B1–393 = settings: reported elsewhere; cited from earlier work

Q: For `O=C(O)C(=O)Nc1sc2c(c1C(=O)O)CCNC2` [TCS401], which IC50 (hPTP1B1–285) is on record?
A: 12.4 ± 1 µM

Q: What about the IC50 (hTCPTP1–415 [1]; footnote c: IC50 values retrieved from the reference, previously tested by our group) of the same compound?
A: 6.7 ± 0.6 µM

Q: What about the IC50 (hPTP1B1–400 [2]) of the same compound?
A: 8.1 ± 1 µM

Q: Which stability during evaluation (hPTP1B1–400 [3]) does the source give for `CC1(C)c2c(cnn2-c2ccc(C(=O)O)cc2)C[C@]2(C)[C@H]3C(=O)C=C4[C@@H]5C[C@@](C)(C(=O)O)CC[C@]5(C)CC[C@@]4(C)[C@]3(C)CC[C@@H]12` [compound 5e, (20β)-2′-(4-Carboxyphenyl)-11-oxo-2′H-oleana-2,12-dieno[3,2-c]pyrazol-29-oic Acid] here?
A: unstable and rapidly degraded during evaluation

Q: Which antihyperglycemic effects [4] does the source give for `CC1(C)c2[nH]c3ccc(C(F)(F)F)cc3c2C[C@]2(C)[C@H]3C(=O)C=C4[C@@H]5C[C@@](C)(C(=O)O)CC[C@]5(C)CC[C@@]4(C)[C@]3(C)CC[C@@H]12` [FC-114, reference compound] here?
A: superior antihyperglycemic effects compared to glibenclamide and acarbose, but did not outperform pioglitazone

Q: And the IC50 (hPTP1B1–400 [5])?
A: 1.75 ± 0.08 µM

Q: And the CC50 (HFF-1 cells)?
A: 59.5 ± 3 µM

Q: For `C[C@H]1[C@H](C)CC[C@]2(C(=O)O)CC[C@]3(C)C(=CC[C@@H]4[C@@]5(C)CC[C@H](O)C(C)(C)[C@@H]5CC[C@]43C)[C@H]12` [Ursolic acid], which “AKT phosphorylation (p-AKT) levels” value (HepG2 cells [6]) is on record?
A: did not show significant changes

Q: And the PTP1B levels (HepG2 cells [6])?
A: neither metformin, ursolic acid, nor the GA derivatives significantly reduced PTP1B levels

Q: What about the p-IRS levels (HepG2 cells [6]) of the same compound?
A: did not show significant changes

Q: What about the p-STAT3 levels (HepG2 cells [6]) of the same compound?
A: did not show significant changes

Q: What about the HepG2 cell viability (HepG2 cells [7]) of the same compound?
A: No significant differences

Q: What about the “AKT phosphorylation (p-AKT) levels” value [8] of the same compound?
A: did not show significant changes

Q: What about the PTP1B levels [8] of the same compound?
A: neither metformin, ursolic acid, nor the GA derivatives significantly reduced PTP1B levels

Q: And the p-IRS levels [8]?
A: did not show significant changes

Q: What about the p-STAT3 levels [8] of the same compound?
A: did not show significant changes

Q: And the inhibition type (hPTP1B1–400 [9])?
A: mixed-type

Q: What about the inhibition type (hPTP1B1–400 [9]; listed as ursolic acid) of the same compound?
A: mixed

Q: What about the Km (hPTP1B1–400 [9]) of the same compound?
A: 1700 ± 330 µM

Q: What about the Vmax (hPTP1B1–400 [9]) of the same compound?
A: 0.63 ± 0.08 mM/min

Q: And the IC50 (hTCPTP1–415 [1]; footnote b: IC50 values retrieved from the reference)?
A: > 400 µM

Q: Which results are given for `Cc1cc(-c2c3ccccc3c(Br)c3sc(C)c(C)c23)cc(C)c1O[C@H](Cc1ccccc1)C(=O)O` [Ertiprotafib, reference compound]?
A: IC50 (hTCPTP1–415 [10]): > 100 µM; inhibition type (hPTP1B1–393): noncompetitive inhibition; inhibition type (hPTP1B1–400 [9]): uncompetitive; Km (hPTP1B1–400 [9]): 940 ± 190 µM; Vmax (hPTP1B1–400 [9]): 1.71 ± 0.24 mM/min
